Activity calls are given as the source filed them. The rule behind the calls is not given here.

The target in data set [1] is Adenosylhomocysteinase (Homo sapiens) (UniProt P23526). Kind of data set: Inhibition of SAHH (unknown origin) at 100 uM relative to control.
The subject of another data set is HT-29. Description: Cytotoxicity against human HT29 cells assessed as reduction in cell viability up to 1 mM incubated for 48 hrs by resazurin-dye based alamar blue assay. The note with it: ht-29, 48 h.
In data set [2] the target is T1, N-terminal Xaa-Pro-Lys N-methyltransferase 1 (Homo sapiens, UniProt Q9BV86).
T1 sequence (Q9BV86 whole entry): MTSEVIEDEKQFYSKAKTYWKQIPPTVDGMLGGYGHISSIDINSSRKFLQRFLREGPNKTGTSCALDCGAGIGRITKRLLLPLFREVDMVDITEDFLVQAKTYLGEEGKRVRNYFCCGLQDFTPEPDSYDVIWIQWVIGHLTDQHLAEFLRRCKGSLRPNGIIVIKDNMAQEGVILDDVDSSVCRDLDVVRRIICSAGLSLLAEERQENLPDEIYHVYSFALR
Description: Inhibition of NTMT1 in human HCT116 cells assessed as decrease in me3-RCC1 level incubated for 3 days by Western blot analysis. Type of data set: cell-based, HCT-116.

Data set [3] concerns the target Protein arginine N-methyltransferase 3 (Homo sapiens) (UniProt O60678). Kind of data set: Inhibition of PRMT3 (unknown origin) at 100 uM relative to control.
In data set [4] the test system is HCT-116. Kind of data set: Cytotoxicity against human HCT116 cells assessed as reduction in cell viability up to 1 mM incubated for 48 hrs by resazurin-dye based alamar blue assay. The following applies: hct-116, 48 h.
For data set [5], the target named is T1, N-terminal Xaa-Pro-Lys N-methyltransferase 1. Description: Inhibition of NTMT1 in human HT29 cells assessed as decrease in me3-RCC1 level incubated for 3 days by Western blot analysis. The data set is classed as cell-based, HT-29.
Data set [6] is filed under the species Homo sapiens. Kind of data set: Selectivity for recombinant human N-terminal His6-tagged NTMT1 (1 to 222 residues) expressed in Escherichia coli BL21-CodonPlus(DE3)-RIL over human His-tagged G9a (913 to 1193 residues) expressed in Escherichia coli BL21-CodonPlus(DE3)-RIL.
The species named for data set [7] is Homo sapiens. Description: Selectivity for recombinant human N-terminal His6-tagged NTMT1 (1 to 222 residues) expressed in Escherichia coli BL21-CodonPlus(DE3)-RIL over His-tagged SETD7 (unknown origin).
For a further data set, the system named is Trypanosoma brucei. Kind of data set: Inhibition of Trypanosoma brucei N-terminal His6-tagged PRMT7 expressed in Escherichia coli BL21-CodonPlus(DE3)-RIL at 100 uM using H4-21 peptide as substrate preincubated for 10 mins in presence of SAM followed by substrate addition by SAHH-coupled fluorescence assay relative to control.
The species entered for data set [8] is Homo sapiens. Kind of data set: Selectivity for recombinant human N-terminal His6-tagged NTMT1 (1 to 222 residues) expressed in Escherichia coli BL21-CodonPlus(DE3)-RIL over PRMT3 (unknown origin).
Data set [9] deals with HCT-116. Kind of data set: Cytotoxicity against human HCT116 cells assessed as reduction in cell viability up to 1 mM incubated for 72 hrs by resazurin-dye based alamar blue assay. The note with it: hct-116, 72 h.
Data set [10] has as its target T2, N-terminal Xaa-Pro-Lys N-methyltransferase 1 (Homo sapiens) (UniProt Q9BV86).
T2 sequence (whole entry): T1 sequence (Q9BV86 whole entry)
Description: Inhibition of NTMT1 in human HCT116 cells assessed as decrease in me3-RCC1 level at 100 uM incubated for 3 days by Western blot analysis. The note with it: HCT-116, time 3.0 day. Type of data set: cell-based.

The subject of data set [11] is HCT-116. Kind of data set: Cytotoxicity against human HCT116 cells assessed as reduction in cell viability up to 1 mM incubated for 24 hrs by resazurin-dye based alamar blue assay. The note with it: hct-116, 24 h.
In data set [12] the target is T2, N-terminal Xaa-Pro-Lys N-methyltransferase 1 (Homo sapiens). Description: Inhibition of NTMT1 in human HCT116 cells assessed as decrease in me3-SPK level at 100 uM incubated for 3 days by Western blot analysis relative to control. Type of data set: cell-based. The note with it: HCT-116, time 3.0 day.
The species named for data set [13] is Homo sapiens. Kind of data set: Selectivity for recombinant human N-terminal His6-tagged NTMT1 (1 to 222 residues) expressed in Escherichia coli BL21-CodonPlus(DE3)-RIL over SAHH (unknown origin).
Data set [14] has as its target T2, N-terminal Xaa-Pro-Lys N-methyltransferase 1 (Homo sapiens). Description: Inhibition of NTMT1 in human HCT116 cells assessed as decrease in me3-SPK level at 300 uM incubated for 3 days by Western blot analysis relative to control. The data set is classed as cell-based. The note with it: HCT-116, time 3.0 day.
The nature of data set [15]: Selectivity for recombinant human N-terminal His6-tagged NTMT1 (1 to 222 residues) expressed in Escherichia coli BL21-CodonPlus(DE3)-RIL over Trypanosoma brucei N-terminal His6-tagged PRMT7 expressed in Escherichia coli BL21-CodonPlus(DE3)-RIL.

Protein arginine N-methyltransferase 3 (Homo sapiens), sequence (O60678 2-531 limits assumed): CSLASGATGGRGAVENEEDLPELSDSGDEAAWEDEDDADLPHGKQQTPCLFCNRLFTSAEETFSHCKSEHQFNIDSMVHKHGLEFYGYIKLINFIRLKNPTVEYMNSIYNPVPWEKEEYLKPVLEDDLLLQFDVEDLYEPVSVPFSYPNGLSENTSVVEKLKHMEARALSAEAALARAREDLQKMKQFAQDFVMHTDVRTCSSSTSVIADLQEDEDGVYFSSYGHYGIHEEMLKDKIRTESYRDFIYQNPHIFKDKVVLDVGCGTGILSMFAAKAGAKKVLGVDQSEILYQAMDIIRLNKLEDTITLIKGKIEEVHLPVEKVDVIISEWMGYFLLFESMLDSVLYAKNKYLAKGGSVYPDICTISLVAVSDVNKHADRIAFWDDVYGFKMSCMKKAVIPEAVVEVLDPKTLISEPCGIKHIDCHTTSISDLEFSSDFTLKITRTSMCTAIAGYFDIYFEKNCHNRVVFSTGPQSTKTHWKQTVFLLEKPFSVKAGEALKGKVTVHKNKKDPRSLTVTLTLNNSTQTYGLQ
Adenosylhomocysteinase (Homo sapiens), sequence (P23526 2-432 limits assumed): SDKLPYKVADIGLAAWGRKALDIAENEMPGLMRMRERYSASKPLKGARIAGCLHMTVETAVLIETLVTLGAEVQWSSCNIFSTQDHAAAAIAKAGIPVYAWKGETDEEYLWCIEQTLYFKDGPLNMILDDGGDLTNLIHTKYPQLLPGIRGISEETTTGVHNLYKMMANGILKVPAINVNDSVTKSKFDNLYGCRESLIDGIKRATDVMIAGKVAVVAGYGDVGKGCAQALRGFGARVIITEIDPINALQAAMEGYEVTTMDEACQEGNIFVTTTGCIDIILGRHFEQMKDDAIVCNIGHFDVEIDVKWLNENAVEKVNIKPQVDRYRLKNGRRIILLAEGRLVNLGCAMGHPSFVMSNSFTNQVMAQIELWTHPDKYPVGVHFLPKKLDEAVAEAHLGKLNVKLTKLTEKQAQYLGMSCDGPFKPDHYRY

Turning to `NCCCC[C@H](NC(=O)[C@@H]1CCCN1C(=O)Cc1cccc2ccccc12)C(=O)Nc1ccccc1C(N)=O`, the inhibition in data set [1] was less than 50%; in data set [3], less than 50%; in the data set with Trypanosoma brucei, less than 50%; in data set [12], 61%; in data set [14] it was 90%. Also, the Activity entry in the data set with HT-29, with HCT-116 [4], in the data set with HCT-116 [9] and in the data set with HCT-116 [11] was “Non-Toxic” throughout. The IC50 in data set [2] is 100 µM; in [5] it was 30 µM. Also, the Selectivity ratio (in the data set listed under Homo sapiens [6]; in the data set listed under Homo sapiens [7]; in the data set listed under Homo sapiens [8]; in the data set listed under Homo sapiens [13]; in data set [15]) was more than 300 throughout. Further, in [10], the inhibition result is “Active”.

The record behind these values is ChEMBL document CHEMBL4680379, “Structure-based Discovery of Cell-Potent Peptidomimetic Inhibitors for Protein N-Terminal Methyltransferase 1” (ACS Med Chem Lett, 2021).
